The source made the active and inactive calls. No cut-off for these calls is given here.
Assays:
[1] = target: Delta-type opioid receptor (Homo sapiens) (UniProt P41143); test: Binding affinity to human Delta-opioid receptor expressed in CHO cell membrane assessed as inhibition of [3H]DPDPE binding to DOR at 10 uM incubated for 60 mins by radioligand binding assay; assay type: cell membranes
[2] = target: Kappa-type opioid receptor (Homo sapiens) (UniProt P41145); test: Agonist activity at human Kappa-opioid receptor expressed in human U2OS cells co-expressing enzyme acceptor tagged beta-arrestin2 fusion protein assessed as increase in beta-arrestin2 recruitment at 10 uM incubated for 180 mins by DiscoverX pathHunter express beta-arrestin2 assay; assay type: functional, cell-based
Sequence of Kappa-type opioid receptor (Homo sapiens) (P41145 whole entry, the tested form may be a part): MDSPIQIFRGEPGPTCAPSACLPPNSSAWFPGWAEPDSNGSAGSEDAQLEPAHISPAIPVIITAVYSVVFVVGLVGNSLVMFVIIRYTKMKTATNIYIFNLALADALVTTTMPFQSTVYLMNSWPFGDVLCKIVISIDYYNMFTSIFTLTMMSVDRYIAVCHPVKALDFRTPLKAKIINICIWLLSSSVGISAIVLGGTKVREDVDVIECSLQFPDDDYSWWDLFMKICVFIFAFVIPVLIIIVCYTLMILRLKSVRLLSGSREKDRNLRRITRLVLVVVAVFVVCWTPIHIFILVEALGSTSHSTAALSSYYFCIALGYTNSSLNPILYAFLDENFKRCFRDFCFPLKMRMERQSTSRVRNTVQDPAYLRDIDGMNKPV

[3] = target: Kappa-type opioid receptor (Homo sapiens) (UniProt P41145); test: Binding affinity to human Kappa-opioid receptor expressed in CHO cell membrane assessed as inhibition of [3H]-U69593 binding to KOR incubated for 60 mins by radioligand binding assay; assay type: cell membranes
[4] = target: Kappa-type opioid receptor (Homo sapiens) (UniProt P41145); test: Potency index, ratio of SalA-VS-07 Ki to test compound Ki for Binding affinity to human Kappa-opioid receptor expressed in CHO cell membrane assessed as inhibition of [3H]-U69593 binding to KOR; assay type: cell membranes; conditions: filed as agonist
[5] = target: Kappa-type opioid receptor (Homo sapiens) (UniProt P41145); test: Agonist activity at human Kappa-opioid receptor expressed in CHO cell membrane assessed as induction of [35S]GTPgammaS binding by measuring G protein activation incubated for 60 mins by liquid scintillation counting assay; assay type: functional, cell membranes

Sequence of Delta-type opioid receptor (Homo sapiens) (P41143 whole entry, the tested form may be a part): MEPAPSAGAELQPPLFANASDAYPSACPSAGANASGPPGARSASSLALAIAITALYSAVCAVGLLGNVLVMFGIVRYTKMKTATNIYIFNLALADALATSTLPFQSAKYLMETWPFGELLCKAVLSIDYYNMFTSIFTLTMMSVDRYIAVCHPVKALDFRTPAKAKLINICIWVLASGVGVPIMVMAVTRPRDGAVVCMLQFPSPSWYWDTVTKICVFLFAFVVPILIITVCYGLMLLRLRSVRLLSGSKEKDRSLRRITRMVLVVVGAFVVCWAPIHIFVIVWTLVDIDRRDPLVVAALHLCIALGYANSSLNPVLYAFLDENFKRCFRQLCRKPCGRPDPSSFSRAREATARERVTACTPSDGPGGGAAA

Structure (SMILES)	Activity [1]	Activity [2]	Activity ([3]; filed as agonist)	Ratio Ki [4]	Activity ([3]; filed as partial agonist)	Activity [5]
CCO[C@@]12Cc3c([nH]c4ccccc34)[C@]3(C)Oc4c(O)ccc5c4[C@@]31CCN(CC1CC1)C2C5	Active					
Cc1cc2n(n1)C1(CCN(C(=O)c3cccc(F)c3)CC1)CC(=O)N2CC1CC1	inactive	inactive	Dose-Dependent Effect	6		
Cc1cc2n(n1)C1(CCN(C(=O)c3ccc(Cl)cc3)CC1)CC(=O)N2CC1CC1	inactive	inactive			Dose-Dependent Effect	
Cc1cc2n(n1)C1(CCN(C(=O)c3ccncc3)CC1)CC(=O)N2CC1CC1						inactive
